Patent US12679839B2, “Cyclin-dependent kinase 7 (CDK7) non-covalent inhibitors” (JANSSEN PHARMACEUTICA NV, priority 2020, dated 2026)

How the values were obtained:
[1] = test system: RNA polymerase II Serine 5 phosphorylation (Rpb1 CTD), downstream substrate of CDK7; experiment: Imaging-based cellular RNA PolII Ser5 phosphorylation assay in A549 cells; type: cell-based, human; settings: challenged with compound for 3 hours; for IC50: Homo sapiens, A549, 3 h, read-out: pRNA polII Ser5 (A549) pIC50 (converted)
Description: Dosing curves were fitted using the following equation to obtain IC50: Y=Bottom+(Top−Bottom)/(1+10^((log IC50−X)*Hill slope)) where X=log10 of the compound concentration; top and bottom can be defined by PC and NC respectively. Imaging-Based Cellular RNA PolII Ser5 Phosphorylation Assay
To evaluate inhibition of CDK7 kinase activity, a 384-well automated imaging assay was used. This assay detects Serine 5 phosphorylation on a unique heptapeptide sequence in the C-terminal domain of Rpb1 subunit of RNA polymerase II, the downstream substrate of CDK7. This heptapeptide sequence is repeated up to 52 times in the CTD of Rpb1.
A549 adenocarcinoma human alveolar basal epithelial cells (ATCC, CCL-185), rabbit Phospho-Rpb1 CTD (Ser5) antibody (D9N51 (Cell Signaling Technology)), DMEM (Sigma), Fetal Bovine Serum (Biowest), L-glutamine (Sigma), Penicillin/Streptomycin (Life Technologies), Sodium Pyruvate (Sigma), Hepes (Sigma), poly-D-lysine coated μclear 384 black plates (Greiner), formaldehyde (PolySciences), D-PBS (Sigma), Methanol (Sigma), Alexa Fluor 488 goat anti rabbit IgG secondary antibody (Life Technologies), HCS CellMask™ Deep Red stain (Life Technologies), Hoechst 33258 (Invitrogen).
RNA Polymerase II Serine 5 phosphorylation was detected using a specific rabbit Phospho-Rpb1 CTD (Ser5) antibody. A549 adenocarcinoma human alveolar basal epithelial cells were seeded in 20 μl medium (DMEM supplemented with 1% Fetal Bovine Serum (heat inactivated 30′ 56° C.), 2 mM L-glutamine, 50 U/ml penicillin 50 μg/ml streptomycin, 1 mM sodium pyruvate and 50 mM hepes) at 1000 cells/well and cultured in poly-D-lysine coated μclear 384 black plates for 20 hours at 37° C. and 5% CO2.
After incubation cells were challenged with compound for 3 hours at 37° C. and 5% CO2. DMSO was used as high control and as low control 10 μM of LDC4297 reference compound was used. 40 nl of test compounds and controls were spotted in cell plates using Echo Liquid Handler (Echo 550, Labcyte). Incubation was followed by 20 minutes fixation with 20 μl 10% formaldehyde at room temperature. Medium/formaldehyde solution was removed, plates were washed 3 times with 30 μl D-PBS (w/o Ca^2+ and Ma^2+) and permeabilization was done by adding 20 μl ice cold methanol for 20 minutes. Cells were washed again 3 times with 30 μl D-PBS and 20 μl blocking buffer (25 ml fetal bovine serum in 500 ml D-PBS) was added for 1 hour.
After removing blocking buffer 20 μl 1/1000 primary antibody rabbit. Phospho-Rpb1 CTD (Ser5) antibody was added which binds to the phosphorylated Serine5 of the heptapeptide sequences in the CTD of Rpb1. Primary antibody was removed, and plates were washed 3 times with 30 μl D-PBS followed by addition of 20 μl 1/2000 Alexa Fluor 488 goat anti rabbit IgG secondary antibody for final detection of Phospho-Rpb1 CTD (Ser5) together with 1/5000 HCS CellMask™ Deep Red stain for membrane staining and 1/5000 Hoechst 33258 for nucleus staining. Last, plates were washed 2 times with 30 μl D-PBS and wells were filled with 40 μL D-PBS, plates were sealed (Thermowell sealing tape) and stored at 4° C. until reading. Plates were read with Opera Phenix (Perkin Elmer) with 10× air objective. Data were calculated and analyzed in Phaedra.
IC50 values were calculated using the following formula:
Average value of all HC's and all LC's are used for normalizations. % Effect=100−(sample−LC)/(HC−LC)×100% Control=(sample/HC)×100
A best-fit curve is fitted by a minimum sum of squares method to the plot of % Control vs. compound concentration. From this an IC50 value can be obtained. An estimate of the slope of the plot in terms of the Hill coefficient is also obtained.

[2] = molecular target: T1, CDK7/Cyclin H/MAT-1 complex (Homo sapiens, UniProt P50613); experiment: Absorbance kinetic assay (20 nM CDK7/Cyclin H/MAT-1 complex); type: biochemical; settings: for IC50: read-out: CDK7 (20 nM) pIC50 (converted)
T1 construct: Human CDK7 (amino acids 1-346); His6 (N); TEV protease cleavage site (N); made in house; host or cells: baculovirus-SF9 insect cells
Experimental: Human CDK7 (amino acids 1-346) containing an N-terminal His6-tag followed by a tobacco etch virus (TEV) protease cleavage site, human MAT1 (amino acids 1-309) and human cyclin H (amino acids 1-323) were co-expressed in the baculovirus-SF9 insect cell expression system to generate a trimeric complex. Cell pellets were collected 72 h post-infection and were resuspended by Dounce homogenization in 20 mM Hepes-NaOH (pH 8.0), 300 mM NaCl, 10% glycerol, 2 mM dithiothreitol DTT), and 20 mM Imidazole supplemented with cOmplete™ Protease Inhibitor Cocktail (Roche) and 25 U/mL Benzonase® Nuclease HC according to the manufacturer's instructions. Cells were lysed by passing through a Microfluidics M110Y Microfluidizer 3 times at 600 kPa followed by centrifugation at 38,000×g at 4° C. for 1 hour. The supernatant was loaded onto a pre-equilibrated HisTrap HP column and eluted in 20 mM Hepes-NaOH (pH 8.0), 50 mM NaCl, 10% glycerol, 2 mM DTT, and 400 mM Imidazole. The eluate was further purified by gel filtration on a Superdex S200 16/60 column and eluted with 20 mM Hepes-NaOH (pH 7.5), 50 mM NaCl, 10% Glycerol, 2 mM DTT. Fractions containing a trimeric complex of CDK7, cyclin H, and MAT1 in a 1:1:1 ratio were pooled and concentrated to 3 mg/mL in a 10 kDa MWCO concentrator, and diluted to a final concentration of 1.6 mg/mL in 11.1 mM Hepes-NaOH (pH 8.0), 27.8 mM NaCl, 1.1 mM DTT and 50% glycerol. […]
Absorbance Kinetic Assay (20 nM CDK7/Cyclin H/MAT-1 Complex)
CDK7 complex catalyzes the ATP-dependent phosphorylation of a peptide substrate CDK7/9-tide that is derived from RNA Pol II to produce phosphorylated peptide and ADP. The kinase reaction product ADP was converted to lactate and NAD^+ in the presence of phosphoenol pyruvate (PEP), NADH and coupling enzymes lactate dehydrogenase (LDH) and pyruvate kinase (PK). CDK7 complex catalytic activity was measured by following the absorbance intensity continuously at 340 nm that corresponds with the depletion of NADH.
Absorbance at 340 nm was followed kinetically at an interval of 2 minutes for 8 hours.
The assay was carried out with 100 μl reaction volume per well in a 384-well plate that was pre-spotted nanoliter volume of compounds by LabCyte Echo 555. Compound dilution plates were made by 2-fold (could vary upon necessity) dilution in DMSO for 11 concentrations plus a DMSO control of uninhibited reaction. 2× substrate and coupling reagent mixture was added to the assay plate followed by an addition of an equal volume of 40 nM CDK7/Cyclin H/MAT-1 complex. After mixing, assay plates were spun at 2000 rpm for 3 minutes and then transferred to the plate reader for data collection.
For reversible inhibitors, the absorbance reaction progress curves were linear. The steady-state rate was derived from the slope of the linear curves. The following equation is applied to determine percent inhibition.
[formula] • νo=max rate (uninhibited rate) • νi=inhibited rate
The IC50 value is calculated by the following equation:
[formula] where νo is the rate in the absence of inhibitor, νmin is the rate at highest inhibitor concentration, and h is the Hill coefficient. Flint Assay (5 nM CDK7/Cyclin H/MAT-1 Complex)

T1 sequence (P50613 whole entry, the tested form may be a part): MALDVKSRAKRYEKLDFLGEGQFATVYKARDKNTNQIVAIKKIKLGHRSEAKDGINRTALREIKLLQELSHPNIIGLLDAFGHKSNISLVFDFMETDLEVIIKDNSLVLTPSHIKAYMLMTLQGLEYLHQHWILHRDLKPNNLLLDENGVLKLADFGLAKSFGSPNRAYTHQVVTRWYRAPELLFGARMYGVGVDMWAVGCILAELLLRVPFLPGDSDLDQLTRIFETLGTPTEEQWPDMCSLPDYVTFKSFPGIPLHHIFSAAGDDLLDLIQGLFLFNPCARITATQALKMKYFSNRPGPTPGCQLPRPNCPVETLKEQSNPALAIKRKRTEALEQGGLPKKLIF
T1 sequence (P51946 whole entry partner, the tested form may be a part): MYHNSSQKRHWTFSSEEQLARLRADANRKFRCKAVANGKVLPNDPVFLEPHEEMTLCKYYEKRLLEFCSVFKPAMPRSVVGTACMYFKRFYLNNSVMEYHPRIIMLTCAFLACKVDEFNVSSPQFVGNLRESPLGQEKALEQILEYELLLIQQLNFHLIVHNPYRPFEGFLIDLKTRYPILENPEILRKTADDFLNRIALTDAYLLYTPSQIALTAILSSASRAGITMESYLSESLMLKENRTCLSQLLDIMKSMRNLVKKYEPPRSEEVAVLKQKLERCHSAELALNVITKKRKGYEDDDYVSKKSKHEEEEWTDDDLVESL
T1 sequence (P51948 whole entry partner, the tested form may be a part): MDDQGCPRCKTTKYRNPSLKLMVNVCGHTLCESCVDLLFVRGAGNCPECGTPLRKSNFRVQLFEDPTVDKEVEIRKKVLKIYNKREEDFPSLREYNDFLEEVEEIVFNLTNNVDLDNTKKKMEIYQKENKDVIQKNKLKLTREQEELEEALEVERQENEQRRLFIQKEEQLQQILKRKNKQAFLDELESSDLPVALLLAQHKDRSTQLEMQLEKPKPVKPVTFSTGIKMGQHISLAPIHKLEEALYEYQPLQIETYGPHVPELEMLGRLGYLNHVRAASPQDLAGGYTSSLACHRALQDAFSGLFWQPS

| IC50 [1] | IC50 [2] | CDK7 (20 nM) pIC50 [2] | pRNA polII Ser5 (A549) pIC50 [1] | Structure (SMILES) |
| --- | --- | --- | --- | --- |
| > 10 µM | 0.0162 µM | – | – | C[C@@H]1Cc2cnc(NC3CCOCC3)nc2CN1C(=O)[C@@H]1CCN(C)C[C@H]1c1cccnc1 (relative stereo) [Compound 117] |
| > 10 µM | – | 5.11 | – | C[C@@H]1Cc2cnc(NC3CCOCC3)nc2CN1C(=O)[C@@H]1CCN(C)C[C@H]1c1ccc(F)cc1 [Compound 92a] |
| 0.794 µM | 0.339 µM | – | – | Cc1cccc([C@@H]2CN(C)CC[C@H]2C(=O)N2Cc3nc(Nc4cnn(C)c4)ncc3C[C@H]2C)c1 (relative stereo) [Compound 125] |
| 2.09 µM | – | 7.50 | – | Cc1ccc(CNc2ncc3c(n2)CN(C(=O)[C@H]2CCN(C)C[C@@H]2c2ccccc2)[C@H](C)C3)cn1 [Compound 27] |
| 0.724 µM | 0.0427 µM | – | – | CC[C@@H]1Cc2cnc(NC3CCOCC3)nc2CN1C(=O)[C@H]1CCN(C)C[C@@H]1c1ccccc1 (relative stereo) [Compound 185] |
| > 10 µM | > 10 µM | – | – | C[C@H]1CN(C(=O)[C@H]2CCN(C)C[C@@H]2c2ccccc2)Cc2nc(NC3CCOCC3)ncc21 (relative stereo) [Compound 187] |
| – | – | <5 | ~5.23 | CO[C@H]1CC[C@H](Nc2cc3c(cn2)C[C@H](C)N(C(=O)[C@@H]2CCN(C)C[C@H]2c2cccc(C)c2)C3)CC1 [Compound 177b] |
| ~0.0676 µM | – | 7.92 | – | C[C@@H]1Cc2cnc(NC3CCOCC3)nc2CN1C(=O)[C@H]1CCN(C)C[C@@H]1c1ccc(F)cc1 (single isomer, unassigned) [Compound 92b] |
| 0.141 µM | – | >8.01 | – | C[C@@H]1Cc2cnc(NC3CCC(F)(F)CC3)nc2CN1C(=O)[C@H]1CCN(C)C[C@@H]1c1ccccc1 [Compound 64] |
| 3.24 µM | – | 6.10 | – | CC(C)N1CC[C@@H](C(=O)N2Cc3nc(NC4CCOCC4)ncc3C[C@H]2C)[C@H](c2ccc(Cl)c(F)c2)C1 (single isomer, unassigned) [Compound 165] |
| 0.0562 µM | 0.011 µM | – | – | C[C@@H]1Cc2cnc(NC3CCOCC3)nc2CN1C(=O)[C@H]1CCN(C)C[C@@H]1c1ccc(F)c(Cl)c1 (relative stereo) [Compound 114] |
| 0.275 µM | – | 7.94 | – | C[C@@H]1Cc2cnc(NCC3CC3)nc2CN1C(=O)[C@H]1CCN(C)C[C@@H]1c1ccccc1 [Compound 34] |
| ~0.0692 µM | – | 7.81 | – | C[C@@H]1Cc2cnc(NC3CCN(C(=O)CC4CC4)CC3)nc2CN1C(=O)[C@H]1CCN(C)C[C@@H]1c1ccccc1 [Compound 31] |
| 0.776 µM | – | 7.46 | – | C[C@@H]1Cc2cnc(NC3CCN(C4COC4)CC3)nc2CN1C(=O)[C@H]1CCN(C)C[C@@H]1c1ccccc1 [Compound 25] |
| > 10 µM | 6.03 µM | – | – | CO[C@H]1CC[C@H](Nc2ncc3c(n2)CN(C(=O)[C@H]2CCN(C)C[C@@H]2c2ccnc(C)c2)[C@H](C)C3)CC1 (relative stereo) [Compound 106] |
| 0.372 µM | – | 7.9 | – | C[C@@H]1Cc2cnc(NCc3c(F)cccc3F)nc2CN1C(=O)[C@H]1CCN(C)C[C@@H]1c1ccccc1 [Compound 32] |
| > 10 µM | – | 6.18 | – | C[C@@H]1Cc2cnc(NC3CCN(S(=O)(=O)C4CC4)CC3)nc2CN1C(=O)[C@H]1CCN(C)C[C@@H]1c1ccccc1 [Compound 41] |
| > 10 µM | – | 5.89 | – | C[C@@H]1Cc2cnc(NC3CCOCC3)nc2CN1C(=O)[C@@H]1CCN(C)C[C@H]1C(F)(F)F [Compound 140a] |
| 1.38 µM | – | 7.39 | – | C[C@@H]1Cc2cnc(NC3CCN(C4CC4)CC3)nc2CN1C(=O)[C@H]1CCN(C)C[C@@H]1c1ccccc1 [Compound 42] |
| 1.74 µM | 0.0794 µM | – | – | C[C@@H]1Cc2cnc(NC3CCOCC3)nc2CN1C(=O)[C@H]1CCN(C)C[C@@H]1C1CC1 (relative stereo) [Compound 113] |
| 2.4 µM | 0.0145 µM | – | – | C[C@@H]1Cc2cnc(NC[C@H]3CCCO3)nc2CN1C(=O)[C@H]1CCN(C)C[C@@H]1c1ccccc1 [Compound 68] |
| 4.47 µM | – | 7.67 | – | Cc1cc(C2CN(C)CCC2C(=O)N2Cc3nc(NC4CCOCC4)ncc3C[C@H]2C)ccn1 (stereo partly shown) [Compound 101] |
| 2.4 µM | – | 7.19 | – | C[C@@H]1Cc2cnc(NCC3CCOCC3)nc2CN1C(=O)[C@H]1CCN(C)C[C@@H]1c1ccccc1 [Compound 36] |
| 4.17 µM | 2.95 µM | – | – | C[C@@H]1Cc2cnc(NCc3ccccc3)nc2CN1C(=O)[C@H]1CCN(C)C[C@@H]1C(F)(F)F (relative stereo) [Compound 142] |
| 1.41 µM | 0.0372 µM | – | – | C[C@@H]1Cc2cnc(NC3CCOCC3)nc2CN1C(=O)[C@@H]1CCN(C)C[C@H]1c1ccncc1 (relative stereo) [Compound 116] |
| > 10 µM | 4.68 µM | – | – | C[C@@H]1Cc2cnc(NC3CCOCC3)nc2[C@@H](C)N1C(=O)[C@H]1CCN(C)C[C@@H]1c1ccccc1 (single isomer, unassigned) [Compound 195a] |
